Here are results for six compounds from US11242406B2, “Methods for the treatment of a cancer or fibrotic disorder associated with MENA or MENA(INV) by administering a map kinase inhibitor” (METASTAT, INC., priority 2016, dated 2022).

Experiment [1] relates to HSP27 Ser82 phosphorylation site. Description: Mass spec phosphoproteomic analysis of MAPKAPK2/MK2-dependent phosphorylation. The experiment is classed as cell-based. To be noted: doxorubicin treated cells. From the text: (§1) The present invention is also based in part on the discovery that the peptide sequence proximal to the serine 125 (Ser125) phosphorylation site of MENA and the equivalent serine 144 (Ser144) phosphorylation site of MENA^INV are potent substrates of the MAPKAPK2/MK2 kinase. Replacement of Ser125 in MENA and or Ser144 in MENA^INV with a non-phosphorylable amino acid changes the peptide substrates to effective peptide inhibitors of the MAPKAPK2/MK2 kinase. […] In doxorubicin treated cells the MENA Ser125 phosphorylation site becomes more heavily phosphorylated (˜8× increase) than the HSP27 Ser82 phosphorylation site (˜2.5× increase). The Ser125/Ser144 serine residue was replaced with a non-phosphorylatable glycine residue to convert the MENA/MENA^INV substrate peptides into effective MENA kinase inhibitors.

Experiment [2] deals with MENA Ser125 phosphorylation site. Described as above. The format is cell-based. The conditions noted are these: doxorubicin treated cells.
Excerpt: as §1

Experiment [3] has as its system MVD7-MENA^INV cells. Description: Fibronectin fibrillogenesis assay. The format is cell-based, mouse. The conditions noted are these: for MENA-dependent fibronectin fibrillogenesis phenotype compared to the MENA-null control: FIG. 8. The protocol:
MENA kinase inhibitors reversed MENA-dependent fibrillogenesis. The ability of the various MENA kinase inhibitors described above to reverse MENA-dependent fibrillogenesis was evaluated in fibronectin fibrillogenesis assays using the […] cell line. Cells were pretreated with MENA kinase inhibitor for 1 hour at the concentrations indicated in FIG. 8 and cultured in medium containing fibronectin-depleted serum supplemented with labeled fibronectin. After 4 hours, fibronectin fibril formation was evaluated by quantitative immunostaining using imageJ software to measure abundance and distribution of fibrillar fibronectin (anova, n=3). The results are plotted relative to control MVD7-GFP cells in FIG. 8.

Experiment [4] relates to MDA-MB-231-MENA^INV cells. Description: Wound healing cell migration assay. The format is cell-based, human. To be noted: 18 hours, fully supplemented medium, without drug 50%. Here is the method: MENA kinase inhibitors block MENA-dependent cell migration in a wound-healing assay. The ability of the various MENA kinase inhibitors described above to block MENA-dependent cell migration of MDA-MB-231-MENA^INV cells was assayed using the CySelect™ wound healing assay kit (Cell Biolabs, Inc., San Diego, Calif.). Following the manufacturer's protocol, cells were cultured in fibronectin coated wells until a monolayer formed around the wound insert. The insert was then removed and cells were cultured in the presence of inhibitor at the indicated concentrations in FIG. 9 in fully supplemented medium. After 18 hours the cells were fixed, stained, and evaluated for their capacity to close the wound generated by the insert by fluorescence microscopy.

Experiment [5] deals with MDA-MB-231-MENA^INV cells. The experiment is described as follows: Matrigel invasion chamber assay (cell invasion and chemotaxis towards EGF). The experiment is classed as cell-based, human. The conditions noted are these: 18 hours. The protocol:
Addition of MENA kinase inhibitors to cells grown in fully supplemented medium reduce the capability of the breast cancer cell line to migrate in the wound healing assay (panels (c)-(h)). Panel (a) represents the wound size at the start of treatment. Cells that were cultured overnight in fully supplemented medium without drug (panel (b)) were able to close 50% of the wound. […] The ability of the various MENA kinase inhibitors described above to inhibit […] tumor cell invasion was tested using the BioCoatTM Matrigel® invasion chamber assay (Corning, Tewksbury, Mass.). […] Inserts were transferred to wells containing basal media (negative control) and the chemoattractant EGF with or without each of the MENA kinase inhibitors. After 18 hours cells that invaded the lower cell surface of the membrane were fixed, stained and evaluated by quantitative immunostaining using imageJ software.

Experiment [6] relates to MDA-MB-231-MENA^INV cells. The experiment is described as follows: Boyden Chamber cell migration and chemotaxis assay. The conditions noted are these: 18 hours. The format is cell-based, human. Here is the method: MENA kinase inhibitors reverse MENA-dependent cell migration and chemotaxis in the Boyden Chamber Assay. […] The fibronectin coated upper chamber were then transferred to wells containing basal media (negative controls) and wells containing basal media, EGF, and MENA kinase inhibitors at the concentrations indicated in FIG. 11. All treatment conditions except the basal negative control used EGF as the chemoattractant. After 18 hours, cells that migrated through the pores toward the chemotattractant were evaluated by quantitative immunostaining using imageJ software as described above. Data were analyzed using anova (n=2) and reported relative to the EGF stimulated cells absent any inhibitor positive control (0) as mean with error of the mean in FIG. 11.

The subject of experiment [7] is MENA kinase-dependent phosphorylation of MENA^INV at Ser144. The experiment is described as follows: Quantitative immunoblot of pSer125/pSer144 MENA/MENA^INV in TNF-alpha stimulated MVD7-MENA^INV cells. The format is cell-based, mouse. To be noted: FIG. 2. Here is the method:
Anti-phospho-MENA antibodies specific for the Ser125/Ser144 phosphorylation site in MENA/MENA^INV were produced in animals injected with peptide containing mouse MENA residues 117-133 phosphorylated at Ser125 and conjugated to KLH (Covance Research Products, Denver, Pa.). Purification of pSer125MENA antibody was performed according to the protocol of Archuleta, et al. (Archuleta, Stutzke, Nixon, & Browning, Optimized protocol to make phospho-specific antibodies that work. Methods Mol. Biol. 717:69-88, 2011). Peptides used for purification (phosphorylated peptide: Ac-CKKGPTLPRQN(pS)QLPAQVQN (SEQ ID NO: 32) and dephosphorylated: […] (SEQ ID NO:32)) were prepared by Covance Research Products (BioLegend, San Diego, Calif.) and ThermoScientific, Grand Island, N.Y., respectively. Peptides were coupled to SulfoLink Coupling Resin Column (ThermoScientific) according to manufacturer's instructions. Sera were sequentially passed over column containing dephosphorylated peptide, and then over the column containing phosphorylated peptide. Antibodies bound to second column were eluted using IgG Elution buffer (ThermoScientific).
Phosphorylation of MENA and or MENA isoforms is inhibited by MENA kinase inhibitors from the Ras-Raf-MEK-MAPK/ERK and PI3K-AKT/mTOR pathways. […] Phosphorylation was measured by quantitative immunoblot assays using MENA antibodies specific for the phosphorylation of MENA/MENA^INV at Ser125/Ser144 Cells were stimulated and the MENA kinase was activated through treatment with 10 ng/ml TNF-alpha. […]
(In general: In western blotting, separated proteins are transferred to a membrane and probed.)

The target of experiment [8] is MAPKAPK2/MK2 (Homo sapiens, UniProt P49137). To be noted: cited from earlier work.
Chain of MAPKAPK2/MK2 (P49137 whole entry): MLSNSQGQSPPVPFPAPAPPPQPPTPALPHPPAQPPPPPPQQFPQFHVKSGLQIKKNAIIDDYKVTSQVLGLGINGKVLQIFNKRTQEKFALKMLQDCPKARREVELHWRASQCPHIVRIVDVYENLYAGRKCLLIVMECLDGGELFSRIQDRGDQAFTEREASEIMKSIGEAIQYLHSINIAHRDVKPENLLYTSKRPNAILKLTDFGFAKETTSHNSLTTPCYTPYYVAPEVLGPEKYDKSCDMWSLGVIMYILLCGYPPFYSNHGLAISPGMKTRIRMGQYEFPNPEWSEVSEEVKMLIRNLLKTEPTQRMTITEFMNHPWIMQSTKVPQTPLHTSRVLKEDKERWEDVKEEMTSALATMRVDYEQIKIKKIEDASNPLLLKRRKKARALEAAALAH

As to `COc1cccc2c1C(=O)c1c(O)c3c(c(O)c1C2=O)C[C@@](O)(C(=O)CO)C[C@@H]3O[C@H]1C[C@H](N)[C@H](O)[C@H](C)O1` [doxorubicin], the “increase in phosphorylation of HSP27 Ser82 site” value in experiment [1] is on record as roughly 2.5 ×. In experiment [2], the “increase in phosphorylation of MENA Ser125 site” value is given as roughly 8 ×.

For `O=C(NOC[C@H](O)CO)c1ccc(F)c(F)c1Nc1ccc(I)cc1F` [PD0325901, N-[(2R)-2,3-dihydroxypropoxy]-3,4-difluoro-2-[(2-fluoro-4-iodophenyl)amino]-benzamide], the “MENA-dependent fibronectin fibrillogenesis phenotype compared to the MENA-null control” value in experiment [3] was “significantly reduced”. The same compound showed a wound closure in experiment [4] (1 uM) of 15%. In addition, the “relative number of cells that invade through Matrigel insert membranes towards EGF” value (shortened to “relative number”) in experiment [5] (1 uM) was “significantly reduce”. The “MENA-dependent migration/chemotaxis phenotype (cells migrated through fibronectin coated membrane towards EGF)” value in experiment [6] (1 uM) is given as “significantly reverse”. Moreover, in experiment [7] (inhibitor at 1 uM), the “level of phosphorylated MENA^INV” value is listed as “significantly reduce”.

The compound `Cc1ccc(-c2ccc3c(ccc4sc5c(c43)NC[C@@H](C)NC5=O)n2)cn1.O` [PF-3644022, (10R)-9,10,11,12-tetrahydro-10-methyl-3-(6-methyl-3-pyridinyl)-8H-[1,4]diazepino[5′,6′:4,5]thieno[3,2-f]quinolin-8-one hydrate] gave a wound closure in experiment [4] (10 uM) of 10%. Further, the “relative number” value in experiment [5] (10 uM) is reported as “significantly reduce”. For the same compound, the “MENA-dependent migration/chemotaxis phenotype (cells migrated through fibronectin coated membrane towards EGF)” value in experiment [6] (10 uM) is “significantly reverse”. Besides, the “level of phosphorylated MENA^INV” value in experiment [7] (inhibitor at 10 uM) is given as “significantly reduce”.

`CC(C)(C)Cn1c(N)nc2ccc(-c3[nH]c(C(C)(C)C)nc3-c3ccc(F)cc3)nc21.CS(=O)(=O)O` [LY2228820, 5-[2-tert-butyl-4-(4-fluorophenyl)-1H-imidazol-5-yl]-3-(2,2-dimethylpropyl)imidazo[4,5-b]pyridin-2-amine; methanesulfonic acid] had a wound closure in experiment [4] (10 uM) of 20%. In experiment [5] (10 uM), the “relative number” value is listed as “significantly reduce”. In experiment [6] (10 uM), the “MENA-dependent migration/chemotaxis phenotype (cells migrated through fibronectin coated membrane towards EGF)” value is “significantly reverse”. The “level of phosphorylated MENA^INV” value in experiment [7] (inhibitor at 1 uM) is on record as “significantly reduce”.

In the case of “KKKALHRQLGVAA (MAPKAPK2/MK2 inhibitor derived from HSP25)”, the “MENA-dependent fibronectin fibrillogenesis phenotype compared to the MENA-null control” value in experiment [3] is listed as “significantly reduced”. The “MENA-dependent fibronectin fibrillogenesis phenotype” value in experiment [3] (increasing concentrations, 100 and 300 uM, 4 hours) was “Dose-dependent reductions”. In addition, in experiment [4] (300 uM), the wound closure was found to be 15%. The “relative number” value in experiment [5] (100 uM) and in experiment [5] (300 uM) was “significantly reduce” each time. The “MENA-dependent migration/chemotaxis phenotype (cells migrated through fibronectin coated membrane towards EGF)” value in experiment [6] (100 uM) and in experiment [6] (300 uM) was “significantly reverse” in each case. Moreover, in experiment [8], the “inhibition of MAPKAPK2/MK2” value is “potent inhibitor”.

In the case of `O=c1cc(N2CCOCC2)oc2c(-c3ccccc3)cccc12` [LY294002, 2-morpholin-4-yl-8-phenylchromen-4-one], in experiment [3], the “MENA-dependent fibronectin fibrillogenesis phenotype compared to the MENA-null control” value is on record as “significantly reduced”. This compound had a wound closure in experiment [4] (10 uM) of 15%. For the same compound, the “relative number” value in experiment [5] (10 uM) is listed as “significantly reduce”. Moreover, in experiment [6] (10 uM), the “MENA-dependent migration/chemotaxis phenotype (cells migrated through fibronectin coated membrane towards EGF)” value is reported as “significantly reverse”.
